Patent US20230322722A1, “MODULATORS OF MYC FAMILY PROTO-ONCOGENE PROTEIN” (Nalo Therapeutics, priority 2020, published 2023)

Tests used:
MycN protein = target: T1, MycN protein (Homo sapiens, UniProt P04198); assay: Degradation of MycN protein, Western blot, SKNBE2 cells (Example 160); assay type: cell-based
T1 construct: either 2×10^6 of L-363 (human leukemia cell line) or SKNBE2 (neuroblastoma cell line) cells; endogenous in cells; host or cells: SKNBE2 / SK-N-BE(2) neuroblastoma cells
T1 sequence (P04198 1-464): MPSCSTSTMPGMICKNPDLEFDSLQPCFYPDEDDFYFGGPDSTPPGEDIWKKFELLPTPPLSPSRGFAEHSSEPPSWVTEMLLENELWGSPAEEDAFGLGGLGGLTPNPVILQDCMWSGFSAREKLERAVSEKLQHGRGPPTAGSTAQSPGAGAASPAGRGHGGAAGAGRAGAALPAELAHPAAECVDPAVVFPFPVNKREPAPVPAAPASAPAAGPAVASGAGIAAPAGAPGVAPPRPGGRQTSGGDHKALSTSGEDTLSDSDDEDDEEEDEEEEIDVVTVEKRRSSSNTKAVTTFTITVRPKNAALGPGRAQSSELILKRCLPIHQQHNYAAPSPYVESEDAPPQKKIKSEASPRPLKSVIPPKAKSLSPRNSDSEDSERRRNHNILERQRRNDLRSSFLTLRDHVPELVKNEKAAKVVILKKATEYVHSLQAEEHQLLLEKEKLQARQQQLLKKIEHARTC
In short: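 L-363 or SKNBE2 cells (passage <40, mostly <30) at 1×10^6 cells/mL in RPMI 1640/10% FBS were exposed 6 h to compound added from a 1 mM stock. RIPA lysates (25–30 ug protein) were analysed by SDS-PAGE and immunoblot with 1:500 primary antibody, with protein level quantified by band densitometry.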

MycC protein = target: T2, MycC protein (Homo sapiens, UniProt P01106); assay: Degradation of MycC protein, Western blot, L-363 cells (Example 160); assay type: cell-based; settings: 6 h
T2 construct: either 2×10^6 of L-363 (human leukemia cell line) or SKNBE2 (neuroblastoma cell line) cells; endogenous in cells; host or cells: L-363 / L363 human leukemia cells
Experimental: In a T150 flask was plated either 2×10^6 of L-363 (human leukemia cell line) or SKNBE2 (neuroblastoma cell line) cells in a total of 30 mL containing Roswell Park Memorial Institute (RPMI) 1640 Medium (Thermo Fisher, Cat. #11875-085), 10% Fetal Bovine Serum (FBS, Thermo Fisher: Cat. #10437-028), 1% Penicillin/streptomycin (Thermo Fisher: Cat. #10378016), and 1% Amophotericin B (Thermo Fisher, Cat. #15290026). The cells were split every 72 hours by reseeding the L-363 or SKNBE2 cells, and the passage number was noted. It is noteworthy that cell cultures that were above 40 passages were not used, and most experiments were done with cells of less than 30 passages.
In a 6-well cell culture plate, a total of 3 mL of either 1×10^6 cells/mL of L-363 or SKNBE2 cells were seeded, resulting in a total of 3×10^6 cells per well. To each well containing 3 mL of either L-363 or SKNBE2 cell line was added 6 uL of MycN modulating compound (1 mM) and the resulting plate was shaken from left to right, and not swirled. After 6 hours, the cells were placed in a 15 mL falcon tube and spun at 500 Gs at 4° C. in a swinging bucket centrifuge. The medium was then carefully removed without disturbing the pellet. The pellet was then washed with 3 mLs of chilled phosphate buffered saline (PBS) and subjected to the spin cycle. PBS was then removed and the pellet was lysed in 200 uL of radioimmunoprecipitation (RIPA) lysis buffer (Thermo Fisher: Cat. #899000) that is supplemented with protease and phosphatase inhibitors (Thermo Fisher: Cat. #A32959). The cell lysate was then subjected to spinning in a centrifuge for 10 minutes at 13000 G at 4° C. The supernatant was then carefully transferred to a fresh eppendorf tube without disturbing the pellet (˜180 uL). The protein concentration of the cell lysate was then determined by using a bicinchoninic acid (BCA assay) according to manufacturer's protocol (Thermo Fisher: Cat. #23227).
Cell lysate, approximately 25 ug-30 ug, was loaded per well in a 4-20% polyacrylamide gel (Biorad. Cat. #5671094). After running the dye front off of the gel, the gel was transferred to a nitrocellulose membrane (Biorad: Cat. #1704159) using the transblot turbo system (Biorad: Cat. #1704150) according to manufacturer's protocol. After transferring for 30 minutes, the membrane was blocked with 5% BSA for 1 hour at room temperature. The BSA was then washed off and the primary antibody of choice (1:500) was added, and the membrane was incubated with the primary antibody at 4° C. for overnight. The next morning, the primary antibody was removed and the membrane was washed with 1×-TBST for 10 minutes and repeated three more times. Following the last wash, a secondary antibody (Molecular Devices. Cat. #R8209 or R8208) was added at 1:5000 dilution and incubated for 1 hour at room temperature. Following the incubation with the secondary antibody, the membrane was washed with 1×-TBST for 10 minutes and repeated three more times. Following the last wash, the membrane was washed with de-ionized water twice and dried for at least two hours. Once the membrane is completely dry, the Molecular Devices Spectra Max western system was used to observe the bands. The western image was saved and the band density was measured with ImageJ software.

T2 sequence (P01106 whole entry): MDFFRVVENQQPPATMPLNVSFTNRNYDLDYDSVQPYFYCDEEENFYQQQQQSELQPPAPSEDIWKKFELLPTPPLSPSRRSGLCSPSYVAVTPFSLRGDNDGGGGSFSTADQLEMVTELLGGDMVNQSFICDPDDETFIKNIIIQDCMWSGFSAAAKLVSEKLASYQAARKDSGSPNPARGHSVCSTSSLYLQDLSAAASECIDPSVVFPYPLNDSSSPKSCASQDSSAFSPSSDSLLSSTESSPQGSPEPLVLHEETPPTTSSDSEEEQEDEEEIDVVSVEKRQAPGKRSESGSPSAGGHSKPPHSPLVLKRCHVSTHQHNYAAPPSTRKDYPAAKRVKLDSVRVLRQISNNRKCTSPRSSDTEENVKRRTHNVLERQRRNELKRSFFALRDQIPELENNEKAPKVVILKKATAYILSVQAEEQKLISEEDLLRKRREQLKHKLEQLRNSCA

inhibition at 2 µM (MycN protein; SKNBE2, 6 h)	inhibition at 2 µM (MycC protein)	SMILES	inhibition at 2 µM (MycN protein; 6 h)
< 20%	20 to 49%	CN(c1cc(C2CCCC2)[nH]n1)c1ccnc(N(C)[C@H]2CC[C@H](NC(=O)c3cccc(S(C)(=O)=O)c3)CC2)n1 [Compound 148, N-((1R,4R)-4-((4-((5-cyclopentyl-1H-pyrazol-3-yl)(methyl)amino)pyrimidin-2-yl)(methyl)amino)cyclohexyl)-3-(methylsulfonyl)benzamide]	–
< 20%	80 to 100%	CN(c1nccc(Nc2cc(C3CC3)[nH]n2)n1)[C@H]1CC[C@H](NC(=O)c2ccc(S(C)(=O)=O)cn2)CC1 [Compound 135, N-((1R,4R)-4-((4-((5-cyclopropyl-1H-pyrazol-3-yl)amino)pyrimidin-2-yl)(methyl)amino)cyclohexyl)-5-(methylsulfonyl)picolinamide]	–
50 to 79%	80 to 100%	CN(c1nccc(Nc2cc(C3CC3)[nH]n2)n1)[C@H]1CC[C@H](NS(=O)(=O)c2cccc(C#N)c2)CC1 [Compound 154, 3-cyano-N-((1R,4R)-4-((4-((5-cyclopropyl-1H-pyrazol-3-yl)amino)pyrimidin-2-yl)(methyl)amino)cyclohexyl)benzenesulfonamide]	–
80 to 100%	80 to 100%	CN(c1nccc(Nc2cc(C3CC3)[nH]n2)n1)[C@H]1CC[C@H](NC(=O)N2CCn3nc(C(F)(F)F)nc3C2)CC1 [Compound 14, N-((1R,4R)-4-((4-((5-cyclopropyl-1H-pyrazol-3-yl)amino)pyrimidin-2-yl)(methyl)amino)cyclohexyl)-2-(trifluoromethyl)-5,6-dihydro-[1,2,4]triazolo[1,5-a]pyrazine-7(8H)-carboxamide]	–
80 to 100%	80 to 100%	Cn1cc(C(=O)N[C@H]2CC[C@H](N(C)c3nccc(Nc4cc(C5CC5)[nH]n4)n3)CC2)nn1 [Compound 140, N-((1R,4R)-4-((4-((5-cyclopropyl-1H-pyrazol-3-yl)amino)pyrimidin-2-yl)(methyl)amino)cyclohexyl)-1-methyl-1H-1,2,3-triazole-4-carboxamide]	–
< 20%	50 to 79%	CN(c1nccc(Nc2cc(C3CC3)[nH]n2)n1)[C@H]1CC[C@H](NC(=O)Cc2cccc(S(C)(=O)=O)c2)CC1 [Compound 115, N-((1R,4R)-4-((4-((5-cyclopropyl-1H-pyrazol-3-yl)amino)pyrimidin-2-yl)(methyl)amino)cyclohexyl)-2-(3-(methylsulfonyl)phenyl)acetamide]	–
80 to 100%	80 to 100%	CN(c1nccc(Nc2cc(C3CC3)[nH]n2)n1)[C@H]1CC[C@H](NC(=O)c2cn(CC3(C)COC3)nn2)CC1 [Compound 150, N-((1R,4R)-4-((4-((5-cyclopropyl-1H-pyrazol-3-yl)amino)pyrimidin-2-yl)(methyl)amino)cyclohexyl)-1-((3-methyloxetan-3-yl)methyl)-1H-1,2,3-triazole-4-carboxamide]	–
50 to 79%	80 to 100%	CN(c1nccc(Nc2cc(C3CC3)[nH]n2)n1)[C@H]1CC[C@H](C(=O)NCC2Cc3ccccc3C2)CC1 [Compound 120, (1R,4R)-4-((4-((5-cyclopropyl-1H-pyrazol-3-yl)amino)pyrimidin-2-yl)(methyl)amino)-N-((2,3-dihydro-1H-inden-2-yl)methyl)cyclohexane-1-carboxamide]	–
80 to 100%	80 to 100%	CN(c1nccc(Nc2cc(C3CC3)[nH]n2)n1)[C@H]1CC[C@H](NS(=O)(=O)c2cccc(S(C)(=O)=O)c2)CC1 [Compound 155, N-((1R,4R)-4-((4-((5-cyclopropyl-1H-pyrazol-3-yl)amino)pyrimidin-2-yl)(methyl)amino)cyclohexyl)-3-(methylsulfonyl)benzenesulfonamide]	–
50 to 79%	80 to 100%	Cn1nnc(C(=O)N[C@H]2CC[C@H](N(C)c3nccc(Nc4cc(C5CC5)[nH]n4)n3)CC2)n1 [Compound 122, N-((1R,4R)-4-((4-((5-cyclopropyl-1H-pyrazol-3-yl)amino)pyrimidin-2-yl)(methyl)amino)cyclohexyl)-2-methyl-2H-tetrazole-5-carboxamide]	–
80 to 100%	80 to 100%	CN(c1nccc(Nc2cc(C3CC3)[nH]n2)n1)C1CCC(CC(=O)Nc2cn(C3COC3)cn2)CC1 [Compound 133, 2-((1R,4R)-4-((4-((5-cyclopropyl-1H-pyrazol-3-yl)amino)pyrimidin-2-yl)(methyl)amino)cyclohexyl)-N-(1-(oxetan-3-yl)-1H-imidazol-4-yl)acetamide]	–
< 20%	20 to 49%	CN(c1nccc(Nc2cc(C3CC3)[nH]n2)n1)[C@H]1CC[C@H](NC(=O)c2ccc(C#N)cn2)CC1 [Compound 137, 5-cyano-N-((1R,4R)-4-((4-((5-cyclopropyl-1H-pyrazol-3-yl)amino)pyrimidin-2-yl)(methyl)amino)cyclohexyl)picolinamide]	–
< 20%	20 to 49%	CN(c1cc(C2CC2)[nH]n1)c1ccnc(N(C)[C@H]2CC[C@H](NC(=O)c3nnn(C)n3)CC2)n1 [Compound 147, N-((1R,4R)-4-((4-((5-cyclopropyl-1H-pyrazol-3-yl)(methyl)amino)pyrimidin-2-yl)(methyl)amino)cyclohexyl)-2-methyl-2H-tetrazole-5-carboxamide]	–
80 to 100%	80 to 100%	CN(c1nccc(Nc2cc(C3CC3)[nH]n2)n1)[C@H]1CC[C@H](NC(=O)c2cccc(S(C)(=O)=O)c2)CC1 [Compound 132, N-((1R,4R)-4-((4-((5-cyclopropyl-1H-pyrazol-3-yl)amino)pyrimidin-2-yl)(methyl)amino)cyclohexyl)-3-(methylsulfonyl)benzamide]	–

SMILES	inhibition at 2 µM (MycN protein; SKNBE2, 6 h)	inhibition at 2 µM (MycC protein)	inhibition at 2 µM (MycN protein; 6 h)
CS(=O)(=O)c1cccc(NC(=O)CN2CCC(Nc3nccc(Nc4cc(C5CC5)[nH]n4)n3)CC2)c1 [Compound 6, 2-(4-((4-((5-cyclopropyl-1H-pyrazol-3-yl)amino)pyrimidin-2-yl)amino)piperidin-1-yl)-N-(3-(methylsulfonyl)phenyl)acetamide]	–	80 to 100%	50 to 79%
CN(c1nccc(Nc2cc(C3CC3)[nH]n2)n1)C1CCN(CC(=O)NC2Cc3ccc(C#N)cc3C2)CC1 (stereo not shown) [Compound 2, N-(5-cyano-2,3-dihydro-1H-inden-2-yl)-2-(4-((4-((5-cyclopropyl-1H-pyrazol-3-yl)amino)pyrimidin-2-yl)(methyl)amino)piperidin-1-yl)acetamide]	–	80 to 100%	80 to 100%
CC(C(=O)Nc1cccc(S(C)(=O)=O)c1)N1CCC(N(C)c2nccc(Nc3cc(C4CC4)[nH]n3)n2)CC1 (stereo not shown) [Compound 9]	–	80 to 100%	80 to 100%
